# Measured values taken from patent US11083732B2, “Use of negative modulators of GABA receptors containing alpha5 subunits as fast acting antidepressants” (University of Maryland, Baltimore, priority 2014, dated 2021).
# Assays:
# [1] = system: depressive symptoms in humans; details: acute administration; cited from earlier work
# [2] = system: chronically stressed animals; details: Li et al., 2011; cited from earlier work
# TA-CA1 synapses = experiment: Anpirtoline (5-HT1BR agonist) potentiation of TA-CA1 EPSP slope in hippocampal slices; parameters: species or system rat; details: slices after CUS
# Protocol: Experiment B. Do alpha5 GABA-NAMs restore 5-HT1BR-mediated potentiation? One can consider whether alpha5 GABA-NAMs reverse another phenotypic alteration of stressed TA-CA 1 synapses: amplification and persistence of responses to the 5-HT1BR agonist anpirtoline (FIG. 3A) (Cai et al., 2013). Slices are prepared from the four groups described in Experiment A. Anpirtoline (501.1M) is bath applied for 60 min, followed by a 90 min washout period. In specific embodiments, anpirtoline potentiation of […], vehicle-injected controls and that injection of alpha5 GABA-NAM […], but has no effect in control rats (see FIG. 3B).
# [3] = system: rats subjected to chronic restraint stress; experiment: Sucrose preference test (SPT) after chronic restraint stress (CRS); format: in vivo, rat; details: MRK-016 3 mg/kg
# Source text: (§1) MRK-016 rapidly reverses loss of sucrose preference and social interaction behaviors after chronic restraint stress (FIG. 9). […] This persisted for 7 days despite further stress exposure. and in the same animals after an additional week of CRS and 7 days after the injection of MRK-016.
# (§2) Chronic restraint stress (CRS). Male Sprague Dawley rats (4-5 weeks-old; Harlan Laboratories) were placed in appropriately sized restraint tubes, highly restricting their movement for periods of four hours in a brightly lit lab, every day for ten days during the light phase of their diurnal cycle (Lim et al., 2012).
# Sucrose preference test (SPT). Rats were given a choice between two bottles containing tap water or a 1% sucrose solution (Rygula et al., 2006). Testing was conducted overnight (16 hours), including the full duration of their dark phase. Animals were first trained with both bottles while group-housed. For subsequent tests, including during the baseline period, animals were individually housed. Sucrose preference was calculated as amount of the sucrose solution consumed as a percentage of the total amount of liquid consumed.
# Drugs/stats. L-655,708 was purchased from Tocris Bioscience (R&D Systems, Minneapolis, Minn.) and prepared at a concentration of 5 mM in 75% saline/25% DMSO. […] This dose is sufficient to occupy about 70% of forebrain binding sites (Atack et al., 2005)
# (§3) Several hedonic behaviors in rodents are sensitive to chronic stress and are restored by chronic, but not acute, administration of SSRIs, providing one means to screen for potential antidepressant compounds. First, it was determined whether L-655,708 would rapidly (<24 hrs) restore normal hedonic behavior following chronic restraint stress (Watanabe et al., 1992; Lim et al., 2012), consistent with the rapid antidepressant-like actions of ketamine (Li et al., 2011). Baseline measurements were first made of social interaction and sucrose preference, and then 4-5 week old rats were subjected to ten days of CRS. […]
# [4] = system: rats subjected to chronic restraint stress; experiment: Social interaction test (SIT) after chronic restraint stress (CRS); format: in vivo, rat; details: MRK-016 3 mg/kg
# Source text: as §1, §2
# Social interaction test (SIT). As described previously (Berton et al., 2006), rats were placed in a plastic enclosure (82×82 cm) with a 5×5 grid of squares (16.4×16.4 cm) visible underneath the clear plastic flooring. A small translucent perforated plastic box (20×16 cm) was placed against the center of one wall of the arena. During the testing conditions white overhead fluorescent lighting was used to illuminate the arena. A video camera positioned 170 cm above the floor of the arena was used to track the movements of the rats during the experiment.
# Each test consisted of a “target-absent” trial followed by a “target-present” trial. During testing, an individual test rat was placed in the center of the arena and, after 30s of adaptation, the rat's movements were recorded with the video camera for 2.5 minutes. […]
# Results were quantified as the percentage of time spent in the “interaction zone” (the five grid squares immediately surrounding the plastic cage) as measured for both the “target-absent” and “target-present” trials. […]
# as §3, with “2011).” for “2011). Baseline measurements were first made of social interaction and sucrose preference, and then 4-5 week old rats were subjected to ten days of CRS.”
smiles,measurement,setting,value
CNC1(c2ccccc2Cl)CCCCC1=O (stereo not drawn) [ketamine],persistence of antidepressant effects,[1],up to two weeks
same,time to improved mood and reduced depressive symptoms,[1],1 to 2 h
same,time to restoration of sucrose preference and novelty suppressed feeding behaviors,[2],24 h
Clc1cccc(SC2CCNCC2)n1 [anpirtoline],persistence of potentiation after washout,TA-CA1 synapses,> 60 min
same,potentiation of TA-CA1 EPSP slope,TA-CA1 synapses; vs control slices,larger
"Cc1cc(-c2nncc3c(C(C)(C)C)c(OCc4ncnn4C)nn23)no1 [MRK-016, 3-tert-Butyl-7-(5-methylisooxazol-3-yl)-2-(1-methyl-1H-1,2,4-triazol-5-ylmethoxy)-pyrazolo[1,5-d]-[1,2,4] triazine]",persistence of effect on sucrose preference,[3]; CRS continued,7 days
same,sucrose preference,"[3]; CRS, 24 hours after treatment, vs baseline",not significantly different than the baseline before stress exposure
same,social interaction scores,"[4]; CRS, 24 hours after treatment, vs pre-stress",not significantly different than the pre-stress condition
same,persistence of effect on social interaction,[4]; despite further stress exposure,7 days
